Where no end group is shown, it is not given here.
What was measured:
TGFβRII = TGFβRII expression by Western analysis in UV-irradiated dermal fibroblasts; type: cell-based, human; details: 1-10 μM added immediately following UV; 5 h post UV treatment; primary fibroblasts
Method: Human skin dermal fibroblasts were cultured from keratome biopsies of healthy adult human skin. Cells were between passages three and six. For UV irradiation, subconfluent cells were washed once with phosphate-buffered saline (PBS) and irradiated with UV. Immediately following irradiation, negative control (vehicle) or 1 μM, 2.5 μM, 5 μM and 10 μM of IK34720 (“IK” in FIG. 3B, SEQ ID NO: 3) were added to the cell cultures.
For Western analysis, nuclear extracts were prepared, membrane fractions were prepared and resolved on 8% SDS-polyacrylamide gel electrophoresis, transferred to polyvinylidene difluoride membrane, and reacted with primary antibodies. Blots were visualized and quantified.

primary keratinocytes = test: ATP levels, CellTiter-Glo 2.0 Assay, after ssUV; type: cell-based; details: 1.5 hours after UVR; compared with Calcitriol
Method: The influence of the polypeptide IK34720 (SEQ ID NO: 3) on intracellular ATP following UV exposure was assessed using the following protocol.
Primary keratinocytes were harvested as described above in Example 2 and were either exposed to ssUV-irradiation (UVR), as described above in Example 2 or not irradiated (SHAM), in the presence or absence of Calcitriol (positive control) or polypeptide IK34720 (SEQ ID NO: 3; RSKAKNPLYRRRRRRRRR), at the concentrations described in Example 2.
ATP levels were determined 1.5 hours after UVR using the CellTiter-Glo® 2.0 Assay (Promega, WI, USA) as described previously (Rybchyn et al., vide supra, 2017). All data in FIG. 4 is shown as mean+SD. *p<0.05, **p<0.01. Cells were prepared and irradiated as described above.

Skh: hr1 hairless mice = test: 8-OHdG (8oxodG) immunohistochemistry in UV-irradiated mouse skin; type: in vivo; details: topical immediately after 3 MED UVR; IK34720 20, 100 or 200 μg, Calcitriol 11.4 pmol/cm2; biopsy 3 h post-UVR; vs vehicle
Method: 8-hydroxy-2′-deoxyguanosine or 8-oxo-7,8-dihydro-2′-deoxyguanosine (8-OHdG/8-oxodG) is one of the predominant forms of free radical-induced in oxidative lesions with the concentrations of 8-OHdG within a cell being a measurement of oxidative stress. The role of the polypeptide IK34720 (SEQ ID NO: 3) in UV-induced oxidative stress was assessed using the following protocol.
Female Skh: hr1 hairless mice were exposed to solar simulated UV-irradiation (UVR) by exposure to one fluorescent UVB tube (Philips TL40W 12R/S, Eindhoven, The Netherlands) in combination with 6 UVA tubes (Hitachi 40W F40T 10/BL, Tokyo, Japan). The UVA and UVB irradiation was filtered through a 0.125 mm cellulose acetate sheet (Grafix Plastics, Cleveland, OH) as previously described (Dixon K M et al., Biochem Mol Biol, 2007, 103 (3-5): 451-6). […]
Biopsies were taken from UV-irradiated dorsal skin 3 h post-UVR and fixed in Histochoice fixative (Amresco, Solon OH) for 6 h. […] Sections were subjected to routine hematoxylin and eosin staining for visualization of sunburn cells at 40× magnification, and the number of sunburn cells per linear millimetre of skin section recorded.
Levels of 8-oxo-2′-deoxyguanosine (8oxodG) indicative of oxidative stress were detected by immunohistochemistry and image analysis (Dixon K M et al., Cancer Prev Res 2011, 4 (9): 1485-94) as set out below. […]

Aquaporin 3 = Aquaporin 3 expression in keratinocytes exposed to HEV (blue) light; type: cell-based, human; details: NHEK exposed to HEV (blue) light; for increase in number of Aquaporin 3 positive cells: 470 nm, 3 days
Method: The ability of the polypeptide RSKAKNPLYRRRRRRRRR, to reverse HEV light (‘blue light”) induced damage to human keratinocytes was examined. In brief, Human Epidermal Keratinocytes (NHEK) which are representative of the epidermis were exposed to HEV light in the presence of the polypeptide RSKAKNPLYRRRRRRRRR, or untreated in the presence of the polypeptide RSKAKNPLYRRRRRRRRR.
The expression of Aquaporin 3 in cells (e.g. aquaporin 3 positive cells_was measured. Aquaporin 3 is found in the basolateral cell membrane and provides a pathway for water to exit cells. It is expressed in various tissues including the skin.
The experiment was carried out in quintuplicate in the following conditions (n=5): • Untreated NHEK • NHEK+IK14800 2,5 μM • NHEK+IK14800 5 μM • NHEK+IK14800 10 μM • NHEK+Blue light • NHEK+Blue light+IK14800 2.5 μM • NHEK+Blue light+IK14800 5 μM • NHEK+Blue light+IK14800 10 μM
Chronic blue light irradiation: one exposure per day for 3 days (220 joules—wavelength 470 nm). 4 days of treatment with the peptide (24 h before exposure to blue light and during the 3 days. The peptide was resuspended in milliQ water then diluted in the cell culture medium.
After treatment, the cells were washed and fixed with Formalin.
Finally, the nuclei were labelled with DAPI. The labelled proteins were observed and quantified by automated fluorescence microscopy Cellinsight CX7 High-Content Screening Platform (Thermofischer Data analysis
A statistical analysis was performed using Mann-Whitney by Prism software. The significance is correlated with the p-value: ns=no significant, […], **p-value<0.01, ***p-value<0.001.).

RSKAKNPLYRRRRRRRRR (not fully specified (some residues)) [IK34720]
TGFβRII expression in UV treated cells (TGFβRII): restored TGFβRII expression
ATP levels (primary keratinocytes): enhanced the ATP levels
8-OHdG formation in the skin (Skh: hr1 hairless mice): inhibits 8-OHdG formation
increase in number of Aquaporin 3 positive cells (Aquaporin 3; 5 μM): +20%
increase in number of Aquaporin 3 positive cells (Aquaporin 3; 10 μM): +27%
basal expression of Aquaporin 3 (Aquaporin 3; 2.5, 5, 10 μM): restores the basal expression of Aquaporin 3 in a dose dependent manner

From patent publication US20250262139A1, “POLYPEPTIDES AND METHODS FOR IMPROVING SKIN CONDITIONS” (INTERK PEPTIDE THERAPEUTICS LIMITED, priority 2020, published 2025)
